{"source": "paper PMC10636026", "about": "“Coordinated regulation of the entry and exit steps of aromatic amino acid biosynthesis supports the dual lignin pathway in grasses” (Nature Communications, 2023)", "format_in_all_cases": "biochemical", "key": {"[1]": {"biological_target": "T1, BdTyrAnc (non-canonical arogenate dehydrogenase) (Brachypodium distachyon, UniProt I1GYB3)", "T1 construct": "gene LOC100829970; without the predicted plastid transit peptide, poly-histidine tag", "T1 sequence (I1GYB3 51-361)": "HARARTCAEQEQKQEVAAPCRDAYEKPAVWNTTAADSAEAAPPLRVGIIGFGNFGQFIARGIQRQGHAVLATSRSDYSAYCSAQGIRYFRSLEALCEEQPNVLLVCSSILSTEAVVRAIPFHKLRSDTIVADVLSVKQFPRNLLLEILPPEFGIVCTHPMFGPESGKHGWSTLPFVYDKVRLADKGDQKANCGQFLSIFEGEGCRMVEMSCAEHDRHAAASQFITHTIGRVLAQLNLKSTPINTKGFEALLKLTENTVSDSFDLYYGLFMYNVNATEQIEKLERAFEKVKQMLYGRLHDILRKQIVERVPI", "test": "Michaelis-Menten kinetics of recombinant purified enzyme (Km)"}, "[2]": {"biological_target": "T2, BdDHS1a (3-deoxy-D-arabino-heptulosonate 7-phosphate synthase) (Brachypodium distachyon, UniProt I1GSB3)", "T2 construct": "gene LOC100823133; without the predicted plastid transit peptide", "T2 sequence (I1GSB3 46-537)": "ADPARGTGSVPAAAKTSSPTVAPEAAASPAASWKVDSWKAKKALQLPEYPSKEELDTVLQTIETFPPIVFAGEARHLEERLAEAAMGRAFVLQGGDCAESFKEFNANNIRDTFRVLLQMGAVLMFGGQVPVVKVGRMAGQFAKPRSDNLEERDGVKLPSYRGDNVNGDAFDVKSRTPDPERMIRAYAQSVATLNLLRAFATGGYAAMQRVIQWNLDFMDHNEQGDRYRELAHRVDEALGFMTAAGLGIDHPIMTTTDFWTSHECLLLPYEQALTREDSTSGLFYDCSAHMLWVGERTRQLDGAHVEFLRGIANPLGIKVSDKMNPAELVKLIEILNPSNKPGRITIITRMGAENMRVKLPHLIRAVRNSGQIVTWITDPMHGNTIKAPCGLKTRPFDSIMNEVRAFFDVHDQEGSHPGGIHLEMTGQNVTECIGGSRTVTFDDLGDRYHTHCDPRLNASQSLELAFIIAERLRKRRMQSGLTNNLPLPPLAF", "test": "recombinant purified enzyme, DHS activity (PEP consumption at […] nm)", "details": "read-out: IC50 / (μM Agn)"}, "[3]": {"biological_target": "T3, BdDHS2 (3-deoxy-D-arabino-heptulosonate 7-phosphate synthase) (Brachypodium distachyon, UniProt I1I809)", "T3 construct": "gene LOC100821423; without the predicted plastid transit peptide", "T3 sequence (I1I809 51-503)": "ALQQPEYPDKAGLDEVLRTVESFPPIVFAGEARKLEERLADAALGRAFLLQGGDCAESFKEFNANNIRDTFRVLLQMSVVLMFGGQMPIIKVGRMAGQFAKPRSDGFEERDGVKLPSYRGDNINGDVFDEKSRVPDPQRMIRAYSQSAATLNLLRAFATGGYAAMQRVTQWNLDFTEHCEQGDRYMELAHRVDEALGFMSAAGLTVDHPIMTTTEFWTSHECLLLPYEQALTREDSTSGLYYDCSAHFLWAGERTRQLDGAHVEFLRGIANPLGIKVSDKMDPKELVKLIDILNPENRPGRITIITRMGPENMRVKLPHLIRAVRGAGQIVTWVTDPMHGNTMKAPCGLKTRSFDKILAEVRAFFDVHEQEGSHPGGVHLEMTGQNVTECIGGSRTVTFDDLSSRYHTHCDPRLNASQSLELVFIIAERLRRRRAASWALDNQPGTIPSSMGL", "test": "recombinant purified enzyme, DHS activity (PEP consumption at […] nm)", "details": "read-out: IC50 / (μM Agn)"}, "[4]": {"biological_target": "T3, BdDHS2 (3-deoxy-D-arabino-heptulosonate 7-phosphate synthase)", "test": "recombinant purified enzyme, DHS activity assay", "details": "read-out: IC50 / (μM Trp)"}, "[5]": {"biological_target": "T4, BdTyrA2 (arogenate dehydrogenase) (Brachypodium distachyon, UniProt I1GWX1)", "T4 construct": "gene LOC100833753; without the predicted plastid transit peptide, poly-histidine tag", "T4 sequence (I1GWX1 56-365)": "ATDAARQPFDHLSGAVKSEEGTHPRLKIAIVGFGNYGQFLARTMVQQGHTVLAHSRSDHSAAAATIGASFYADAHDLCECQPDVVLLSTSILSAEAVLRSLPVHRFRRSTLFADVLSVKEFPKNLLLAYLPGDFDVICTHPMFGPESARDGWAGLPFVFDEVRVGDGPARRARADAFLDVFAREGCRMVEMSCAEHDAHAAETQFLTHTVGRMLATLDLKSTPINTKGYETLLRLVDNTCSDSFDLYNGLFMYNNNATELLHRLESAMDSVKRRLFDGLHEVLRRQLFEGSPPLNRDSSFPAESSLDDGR", "test": "recombinant purified enzyme, arogenate dehydrogenase assay (NADPH at […] nm); Ki calculated from IC50 and Km", "details": "read-out: Ki / (μM tyrosine)"}, "[6]": {"biological_target": "T1, BdTyrAnc (non-canonical arogenate dehydrogenase)", "test": "recombinant purified enzyme, arogenate dehydrogenase assay (NADPH at […] nm); Ki calculated from IC50 and Km", "details": "read-out: Ki / (μM tyrosine)"}}, "data": [{"smiles": "N[C@@H](C[C@]1(C(=O)O)C=C[C@@H](O)C=C1)C(=O)O", "note": "[arogenate]", "values": [{"measurement": "Km", "setting": "[1]", "value": "0.13 ± 0.04", "unit": "mM"}, {"measurement": "IC50", "setting": "[2]", "value": "285 ± 24", "unit": "µM"}, {"measurement": "IC50", "setting": "[3]", "value": "91 ± 11", "unit": "µM"}]}, {"smiles": "N[C@@H](Cc1c[nH]c2ccccc12)C(=O)O", "note": "[tryptophan]", "values": [{"measurement": "IC50", "setting": "[4]", "value": "120 ± 4", "unit": "µM"}]}, {"smiles": "N[C@@H](Cc1ccc(O)cc1)C(=O)O", "note": "[tyrosine]", "values": [{"measurement": "Ki", "setting": "[5]", "value": "8 ± 2", "unit": "µM"}, {"measurement": "Ki", "setting": "[6]", "value": "64 ± 25", "unit": "µM"}]}]}
